Experimental data from patent EP4385979A1 (Grünenthal GmbH, priority 2022, dated 2024).

Each compound was assayed against T1, human NaV1.8 (Homo sapiens, UniProt Q9Y5Y9) (assay: Electrophysiology: voltage-clamp recordings, whole-cell patch clamp on Qube384 automated platform). Settings: HEK-NaV1.8 (NM 006514.1) with b3 recombinant cell line, multi hole plates, ambient room temperature, read-out: Potency category (human NaV1.8 IC50).
T1 construct: expressed in transfected cells; host or cells: HEK
T1 sequence (Q9Y5Y9 whole entry): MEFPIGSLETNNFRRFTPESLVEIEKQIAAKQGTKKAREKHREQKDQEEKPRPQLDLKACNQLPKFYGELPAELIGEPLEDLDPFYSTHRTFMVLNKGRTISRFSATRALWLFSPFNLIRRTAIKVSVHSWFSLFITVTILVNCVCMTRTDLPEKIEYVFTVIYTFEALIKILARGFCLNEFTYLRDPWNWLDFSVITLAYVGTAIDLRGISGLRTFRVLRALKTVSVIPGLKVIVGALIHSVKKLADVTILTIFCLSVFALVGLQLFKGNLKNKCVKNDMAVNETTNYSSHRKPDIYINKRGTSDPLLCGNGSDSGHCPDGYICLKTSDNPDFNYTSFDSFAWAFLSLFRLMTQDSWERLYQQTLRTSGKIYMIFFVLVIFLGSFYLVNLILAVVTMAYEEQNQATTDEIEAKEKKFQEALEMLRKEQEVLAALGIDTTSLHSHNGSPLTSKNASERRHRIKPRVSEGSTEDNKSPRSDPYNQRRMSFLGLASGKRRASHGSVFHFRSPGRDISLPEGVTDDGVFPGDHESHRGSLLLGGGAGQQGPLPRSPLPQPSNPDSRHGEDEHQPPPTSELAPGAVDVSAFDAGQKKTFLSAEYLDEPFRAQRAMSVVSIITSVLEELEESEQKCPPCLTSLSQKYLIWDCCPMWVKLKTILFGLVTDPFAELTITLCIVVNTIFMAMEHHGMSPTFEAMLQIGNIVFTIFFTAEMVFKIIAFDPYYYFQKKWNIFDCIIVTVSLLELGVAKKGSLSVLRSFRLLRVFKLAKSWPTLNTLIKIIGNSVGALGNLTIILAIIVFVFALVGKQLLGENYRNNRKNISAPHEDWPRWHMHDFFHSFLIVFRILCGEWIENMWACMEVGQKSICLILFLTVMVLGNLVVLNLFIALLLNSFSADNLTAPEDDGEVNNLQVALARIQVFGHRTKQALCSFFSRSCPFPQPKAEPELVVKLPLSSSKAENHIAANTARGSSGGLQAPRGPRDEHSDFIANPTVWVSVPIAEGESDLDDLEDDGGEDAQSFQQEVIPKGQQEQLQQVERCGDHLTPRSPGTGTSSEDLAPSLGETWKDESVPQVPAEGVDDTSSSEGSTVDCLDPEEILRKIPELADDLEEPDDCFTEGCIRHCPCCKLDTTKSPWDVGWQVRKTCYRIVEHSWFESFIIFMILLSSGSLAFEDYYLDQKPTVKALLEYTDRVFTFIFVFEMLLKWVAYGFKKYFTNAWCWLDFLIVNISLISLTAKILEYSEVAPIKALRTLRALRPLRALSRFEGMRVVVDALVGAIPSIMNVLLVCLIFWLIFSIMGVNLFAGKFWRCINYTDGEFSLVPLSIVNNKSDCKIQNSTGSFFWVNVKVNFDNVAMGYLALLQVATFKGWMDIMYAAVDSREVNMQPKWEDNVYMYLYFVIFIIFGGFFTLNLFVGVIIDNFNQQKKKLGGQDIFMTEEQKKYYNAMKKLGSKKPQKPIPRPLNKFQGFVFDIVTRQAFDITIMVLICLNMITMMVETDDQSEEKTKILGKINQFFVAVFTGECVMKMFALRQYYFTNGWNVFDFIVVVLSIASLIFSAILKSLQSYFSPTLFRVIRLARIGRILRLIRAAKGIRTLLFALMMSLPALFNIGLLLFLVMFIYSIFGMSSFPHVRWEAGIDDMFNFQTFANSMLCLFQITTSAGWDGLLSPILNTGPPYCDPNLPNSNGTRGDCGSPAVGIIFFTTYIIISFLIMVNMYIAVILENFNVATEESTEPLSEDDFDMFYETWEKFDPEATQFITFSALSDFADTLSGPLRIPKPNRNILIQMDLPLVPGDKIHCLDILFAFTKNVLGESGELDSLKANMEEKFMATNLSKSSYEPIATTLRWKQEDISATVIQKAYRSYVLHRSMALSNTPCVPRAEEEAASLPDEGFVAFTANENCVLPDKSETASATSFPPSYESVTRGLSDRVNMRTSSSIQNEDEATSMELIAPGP
Assay type: cell-based
Method: Electrophysiology: Voltage-Clamp recordings
The following NaV1.8 recombinant cell line was used for recordings: HEK-NaV1.8 (NM 006514.1) with b3 (NM_018400.3).
Sodium currents were measured using the patch clamp technique in the whole-cell configuration using the Qube384 (Sophion A/S, Copenhagen, Denmark) automated voltage clamp platform. "Multi hole" plates were used for the cell line expressing NaV1.8 while "single hole" plates were used for the recombinant cell lines expressing the other subtypes. Appropriate filters (for minimum seal resistance and minimum current size) and series resistance compensation (for high quality sodium channel recordings) were applied. Data was collected at ambient room temperature.
The recording […] solution contained (in mM): NaCl 145 mM, KCl 4 mM, CaCl2 2 mM, MgCl2 1 mM, HEPES 10 mM, Glucose 10 mM, pH 7.4 (NaOH). The […] recording solution contained (in mM): CsF 120 mM, CsCl 20 mM, NaCl 10 mM, EGTA 10 mM, HEPES 10 mM, pH 7.2 (CsOH). Currents were recorded at 25 kHz sampling frequency and filtered at 5 kHz. Series resistance compensation was applied at 65%.
Vehicle (VEH) is the control condition where cells are exposed to 0.3 % DMSO without compound. All runs include VEH controls being exposed to the same voltage protocols to assess non-compound related phenomena such as run down and then used to isolate compound dependent effects on currents.
To check for state-dependence inhibition, the following voltage-sequence was applied every 20 seconds: From a resting membrane potential of-120 mV, the first test pulse (P1; 20 ms to -10 mV) was applied to check for channels in the Resting State followed by a brief recovery (20 ms to -120 mV), then holding the membrane voltage to V1/2 (4 seconds at voltage to obtain half the channel at Rest and half Inactivated) with a subsequent second test pulse (P2; 20 ms to -10 mV) to check for channels in the Inactivated State, followed by another brief recovery (20 ms to -120 mV) and a final third test pulse (P3; 20 ms to -10 mV) to check for recovered channels.
To check for frequency-dependent inhibition, a 10 Hz protocol and a 20 Hz protocol were applied; namely,
From a resting membrane potential of -120 mV, 40-pulses (10 ms to -10 mV) was applied at 10 Hz (at 100 ms between pulses) and then at 20 Hz (at 50 ms between pulses). Each parameter was recorded (P1, P2, P3, P40 from 10Hz and P40 from 20Hz) during a control period (lasting ~ 5 minutes) when establishing the baseline and during compound period (lasting ~ 12 minutes) when test compound (or vehicle) was applied. For each parameter, the value at the end of the compound period was normalized to the vehicle baseline; as follows Normalized Inhibition (NormCPD) = (CPD Valueend CPD period)/(VEH Valueend Control Period) [formula]
To adjust for any variance in the Na^+ current signal during the compound period (owing to cumulative inactivation independent of compound or shifts in biophysics over time), a dedicated segment of the recording wells in each 384 plate were dedicated to having only vehicle exposure. These vehicle-only recordings were used to correct for any apparent "run-up" or "run-down" in the experiment. Normalized Inhibition (NormVEH) = (VEH Valueend CPD period)/(VEH Valueend Control Period) [formula]
The adjusted inhibition was calculated as follows: % Inhibitioncorrected = 100 × (NormCPD −NormVEH)/(100−NormVEH) [formula]
Percent inhibition was determined and IC50 values were calculated using a 4 parameter logistic model within XLFit Software (IDBS, Boston MA): % Inhibitioncorrected = A + ((B−A))/((1 + (((x)/(C)))^D) [formula] where A and B are the maximal and minimum inhibition respectively, C is the IC50 concentration and D is the (Hill) slope.
`Cc1c(C(F)(F)F)nn(CC23CC(C(F)(F)F)(C2)C3)c1C(=O)Nc1ccnc(C(N)=O)c1` [Example 8, 4-(4-methyl-3-(trifluoromethyl)-1-((3-(trifluoromethyl)bicyclo [1.1.1]pentan-1-yl)methyl)-1H-pyrazole-5-carboxamido)picolinamide] gave an IC50 of at most 0.1 µM.
Compound `Cc1c(C(C)(F)F)nn(CC2(C)CC(F)(F)CC2C)c1C(=O)Nc1ccnc(C(N)=O)c1` (single isomer, unassigned) [Example 10d, 4-(1-((4,4-difluoro-1,2-dimethylcyclopentyl)methyl)-3-(1,1-difluoroethyl)-4-methyl-1H-pyrazole-5-carboxamido)picolinamide] has an IC50 of at most 0.1 µM.
With `NS(=O)(=O)c1cccc(NC(=O)c2c(C(F)(F)F)cnn2CC23CCC(C2)C3)c1` [Example 35, 1-(bicyclo[2.1.1]hexan-1-ylmethyl)-N-(3-sulfamoylphenyl)-4-(trifluoromethyl)-1H-pyrazole-5-carboxamide] the IC50 was at most 0.1 µM.
Compound `NC(=O)c1cc(NC(=O)c2c(C(F)(F)F)cnn2CC23CC(CO2)C3)ccc1F` [Example 37, 1-((2-oxabicyclo[2.1.1]hexan-1-yl)methyl)-N-(3-carbamoyl-4-fluorophenyl)-4-(trifluoromethyl)-1H-pyrazole-5-carboxamide] has an IC50 of 1 to 10 µM.
`Cc1nn(CC23CC(F)(C2)C3)c(C(=O)Nc2ccnc(C(N)=O)c2)c1C(F)(F)F` [Example 1, 4-(1-((3-fluorobicyclo[1.1.1]pentan-1-yl)methyl)-3-methyl-4-(trifluoromethyl)-1H-pyrazole-5-carboxamido)picolinamide] showed an IC50 of 0.1 to 1 µM.
For `CS(=O)(=O)n1cc(NC(=O)c2c(C(F)(F)F)cnn2CC2CC3(CC3)C2)cn1` [Example 48, N-(1-(methylsulfonyl)-1H-pyrazol-4-yl)-1-(spiro[2.3]hexan-5-ylmethyl)-4-(trifluoromethyl)-1H-pyrazole-5-carboxamide], the IC50 was 1 to 10 µM.
In the case of `CS(=O)(=O)c1cc(NC(=O)c2c(C(F)(F)F)c(C3CC3)nn2CC23CC(C(F)(F)F)(C2)C3)ccn1` [Example 28, 3-cyclopropyl-N-(2-(methylsulfonyl)pyridin-4-yl)-4-(trifluoromethyl)-1-((3-(trifluoromethyl)bicyclo[1.1.1]pentan-1yl)methyl)-1H-pyrazole-5-carboxamide], the IC50 is reported as at most 0.1 µM.
In the case of `Cc1c(C(C)(F)F)nn(CC23CC(C(F)(F)F)(C2)C3)c1C(=O)Nc1ccnc(S(C)(=O)=O)c1` [Example 25, 3-(1,1-difluoroethyl)-4-methyl-N-(2-(methylsulfonyl)pyridin-4-yl)-1-((3-(trifluoromethyl)bicyclo[1.1.1]pentan-1yl)methyl)-1H-pyrazole-5-carboxamide], the IC50 is reported as at most 0.1 µM.
For `Cc1c(C(C)(F)F)nn(CC23CC(C(F)(F)F)(C2)C3)c1C(=O)Nc1ccnc(C(N)=O)c1` [Example 4], the IC50 was at most 0.1 µM.
Compound `CC1(C)CC(Cn2nc(C3CC3)c(C(F)(F)F)c2C(=O)Nc2ccnc(S(C)(=O)=O)c2)O1` (single isomer, unassigned) [Example 22a, 3-cyclopropyl-1-((4,4-dimethyloxetan-2-yl)methyl)-N-(2-(methylsulfonyl)pyridin-4-yl)-4-(trifluoromethyl)-1H-pyrazole-5-carboxamide] has an IC50 of 1 to 10 µM.
Compound `CS(=O)(=O)c1cc(NC(=O)c2c(C(F)(F)F)c(C3CC3)nn2CC23CC(CO2)C3)ccn1` [Example 24, 1-((2-oxabicyclo[2.1.1]hexan-1-yl)methyl)-3-cyclopropyl-N-(2-(methylsulfonyl)pyridin-4-yl)-4-(trifluoromethyl)-1H-pyrazole-5-carboxamide] has an IC50 of 0.1 to 1 µM.
Work on `Cc1nn(CC23CC(C(F)(F)F)(C2)C3)c(C(=O)Nc2ccnc(C(N)=O)c2)c1C(F)(F)F` [Example 18, 4-(3-methyl-4-(trifluoromethyl)-1-((3-(trifluoromethyl)bicyclo [1.1.1]pentan-1-yl)methyl)-1H-pyrazole-5-carboxamido)picolinamide] yielded an IC50 of at most 0.1 µM.
In the case of `NS(=O)(=O)c1cccc(NC(=O)c2c(C(F)(F)F)cnn2CC23CC(C2)C3)c1` [Example 32, 1-(bicyclo [1.1.1]pentan-1-ylmethyl)-N-(3-sulfamoylphenyl)-4-(trifluoromethyl)-1H-pyrazole-5-carboxamide], the IC50 is reported as 0.1 to 1 µM.
Compound `Cc1nn(CC23CC(C(F)(F)F)(C2)C3)c(C(=O)Nc2ccnc(S(C)(=O)=O)c2)c1C(F)(F)F` [Example 26, 3-methyl-N-(2-(methylsulfonyl)pyridin-4-yl)-4-(trifluoromethyl)-1-((3-(trifluoromethyl)bicyclo[1.1.1]pentan-1yl)methyl)-1H-pyrazole-5-carboxamide] has an IC50 of 0.1 to 1 µM.
In the case of `Cc1nn(CC23CC(C2)C3)c(C(=O)Nc2ccc(F)c(C(N)=O)c2)c1C(F)(F)F` [Example 40, 1-(bicyclo[1.1.1]pentan-1-ylmethyl)-N-(3-carbamoyl-4-fluorophenyl)-3-methyl-4-(trifluoromethyl)-1H-pyrazole-5-carboxamide], the IC50 is reported as 0.1 to 1 µM.
Compound `Cc1nn(CC23CC(CO2)C3)c(C(=O)Nc2cccc(S(N)(=O)=O)c2)c1C(F)(F)F` [Example 33, 1-((2-oxabicyclo [2.1.1]hexan-1-yl)methyl)-3-methyl-N-(3-sulfamoylphenyl)-4-(trifluoromethyl)-1H-pyrazole-5-carboxamide] has an IC50 of 1 to 10 µM.
Compound `CC12CC(Cn3nc(C4CC4)c(C(F)(F)F)c3C(=O)Nc3ccnc(S(C)(=O)=O)c3)(CO1)C2` [Example 23, 3-cyclopropyl-1-((1-methyl-2-oxabicyclo[2.1.1]hexan-4-yl)methyl)-N-(2-(methylsulfonyl)pyridin-4-yl)-4-(trifluoromethyl)-1H-pyrazole-5-carboxamide] has an IC50 of 0.1 to 1 µM.
`Cc1c(C(C)(F)F)nn(CC23CC(F)(C2)C3)c1C(=O)Nc1ccnc(C(N)=O)c1` [Example 2, 4-(3-(1,1-difluoroethyl)-1-((3-fluorobicyclo [1.1.1]pentan-1-yl)methyl)-4-methyl-1H-pyrazole-5-carboxamido)picolinamide] showed an IC50 of 0.1 to 1 µM.
`CS(=O)(=O)n1cc(NC(=O)c2c(C(F)(F)F)cnn2CC23CCC(C2)C3)cn1` [Example 49, 1-(bicyclo[2.1.1]hexan-1ylmethyl)-N-(1-(methylsulfonyl)-1H-pyrazol-4-yl)-4-(trifluoromethyl)-1H-pyrazole-5-carboxamide] gave an IC50 of 0.1 to 1 µM.
In the case of `NC(=O)c1cc(NC(=O)c2c(C(F)(F)F)c(C3CC3)nn2CC23CC(CO2)C3)ccn1` [Example 3], the IC50 is reported as 0.1 to 1 µM.
Work on `Cc1c(C(C)(F)F)nn(CC2(C)CC(F)(F)CC2C)c1C(=O)Nc1ccnc(S(N)(=O)=O)c1` (single isomer, unassigned) [Example 43c, 1-((4,4-difluoro-1,2-dimethylcyclopentyl)methyl)-3-(1,1-difluoroethyl)-4-methyl-N-(2-sulfamoylpyridin-4-yl)-1H-pyrazole-5-carboxamide] yielded an IC50 of at most 0.1 µM.
`CC12COC(Cn3nc(C4CC4)c(C(F)(F)F)c3C(=O)Nc3ccnc(S(C)(=O)=O)c3)(C1)C2` [Example 19, 3-cyclopropyl-1-((4-methyl-2-oxabicyclo[2.1.1]hexan-1-yl)methyl)-N-(2-(methylsulfonyl)pyridin-4-yl)-4-(trifluoromethyl)-1H-pyrazole-5-carboxamide] showed an IC50 of 0.1 to 1 µM.
Compound `Cc1c(C(F)(F)F)nn(CC23CC(C(F)(F)F)(C2)C3)c1C(=O)Nc1ccnc(S(C)(=O)=O)c1` [Example 27, 4-methyl-N-(2-(methylsulfonyl)pyridin-4-yl)-3-(trifluoromethyl)-1-((3-(trifluoromethyl)bicyclo[1.1.1]pentan-1yl)methyl)-1H-pyrazole-5-carboxamide] has an IC50 of 0.1 to 1 µM.
